Measured values taken from the CheMixHub viscosity set.
± gives the uncertainty stated by the source.

Assay: xn = mol fraction of the nth substance listed

ClC(Cl)=C(Cl)Cl + O=[N+]([O-])c1ccccc1
303.15 K, 101 kPa
Details | viscosity [mPa·s]
x1 = 0.1516 | 1.446 ± 0.034
x1 = 0.2128 | 1.376 ± 0.03
x1 = 0.2966 | 1.288 ± 0.026
x1 = 0.3642 | 1.221 ± 0.023
x1 = 0.4582 | 1.144 ± 0.02
x1 = 0.5496 | 1.074 ± 0.017
x1 = 0.6451 | 1.012 ± 0.014
x1 = 0.7624 | 0.941 ± 0.012
x1 = 0.8428 | 0.896 ± 0.01
x1 = 0.9206 | 0.856 ± 0.009

C1CCC2CCCCC2C1 (configuration not stated) + OCC1CC1
viscosity [mPa·s], 101 kPa
Details | x2 = 0.0988 | x2 = 0.2017 | x2 = 0.2994 | x2 = 0.4008 | x2 = 0.5004 | x2 = 0.6011 | x2 = 0.7007 | x2 = 0.8009 | x2 = 0.8994
293.15 K | 2.377 ± 0.05 | 2.408 ± 0.051 | 2.471 ± 0.053 | 2.554 ± 0.054 | 2.676 ± 0.057 | 2.846 ± 0.061 | 3.024 ± 0.065 | 3.244 ± 0.069 | 3.581 ± 0.077
298.15 K | 2.149 ± 0.046 | 2.17 ± 0.046 | 2.217 ± 0.047 | 2.282 ± 0.049 | 2.378 ± 0.051 | 2.517 ± 0.054 | 2.662 ± 0.057 | 2.84 ± 0.061 | 3.12 ± 0.067
303.15 K | 1.952 ± 0.041 | 1.965 ± 0.042 | 2.001 ± 0.043 | 2.05 ± 0.044 | 2.126 ± 0.045 | 2.24 ± 0.048 | 2.356 ± 0.05 | 2.502 ± 0.053 | 2.736 ± 0.059
308.15 K | 1.781 ± 0.038 | 1.787 ± 0.038 | 1.814 ± 0.039 | 1.85 ± 0.039 | 1.91 ± 0.041 | 2.003 ± 0.043 | 2.097 ± 0.045 | 2.215 ± 0.047 | 2.411 ± 0.052
313.15 K | 1.63 ± 0.035 | 1.633 ± 0.035 | 1.651 ± 0.035 | 1.678 ± 0.036 | 1.724 ± 0.037 | 1.799 ± 0.038 | 1.874 ± 0.04 | 1.971 ± 0.042 | 2.135 ± 0.046
318.15 K | 1.499 ± 0.032 | 1.497 ± 0.032 | 1.509 ± 0.032 | 1.527 ± 0.033 | 1.562 ± 0.033 | 1.623 ± 0.035 | 1.683 ± 0.036 | 1.762 ± 0.038 | 1.899 ± 0.041
323.15 K | 1.382 ± 0.029 | 1.358 ± 0.029 | 1.383 ± 0.029 | 1.396 ± 0.03 | 1.421 ± 0.03 | 1.47 ± 0.031 | 1.518 ± 0.032 | 1.581 ± 0.034 | 1.697 ± 0.036

CC12CC3CC(C)(C1)CC(C)(C3)C2 + OCC1CCCCC1
Details | viscosity [mPa·s]
303.15 K, 100 kPa, x2 = 0.801 | 10.65 ± 0.17

CCCCCO + OCCO
293.15 K, 101.33 kPa
Details | viscosity [mPa·s]
x2 = 0.0857 | 4.274 ± 0.037
x2 = 0.1963 | 4.916 ± 0.042
x2 = 0.2991 | 5.66 ± 0.045
x2 = 0.3697 | 6.324 ± 0.049
x2 = 0.4694 | 7.484 ± 0.056
x2 = 0.5395 | 8.676 ± 0.062
x2 = 0.5964 | 9.655 ± 0.068
x2 = 0.713 | 12.32 ± 0.082
x2 = 0.7884 | 14.03 ± 0.091
x2 = 0.8506 | 15.9 ± 0.1
x2 = 0.9407 | 18.94 ± 0.12

O=[N+]([O-])c1ccccc1 + OCCOCCO
viscosity [mPa·s], 101 kPa
Details | 298.15 K | 308.15 K
x2 = 0.0441 | 1.987 ± 0.093 | 1.691 ± 0.081
x2 = 0.1493 | 2.565 ± 0.12 | 2.115 ± 0.099
x2 = 0.2505 | 3.312 ± 0.15 | 2.642 ± 0.12
x2 = 0.3502 | 4.303 ± 0.19 | 3.31 ± 0.15
x2 = 0.4438 | 5.55 ± 0.24 | 4.117 ± 0.18
x2 = 0.4934 | 6.373 ± 0.26 | 4.632 ± 0.2
x2 = 0.5487 | 7.457 ± 0.3 | 5.293 ± 0.23
x2 = 0.6506 | 10.04 ± 0.38 | 6.804 ± 0.28
x2 = 0.751 | 13.58 ± 0.49 | 8.774 ± 0.34
x2 = 0.8498 | 18.47 ± 0.64 | 11.34 ± 0.42
x2 = 0.9429 | 24.89 ± 0.84 | 14.54 ± 0.52

O=[N+]([O-])c1ccccc1 + OCCOCCOCCO
viscosity [mPa·s], 101 kPa
Details | 298.15 K | 308.15 K
x2 = 0.0465 | 2.086 ± 0.098 | 1.759 ± 0.083
x2 = 0.1495 | 2.91 ± 0.13 | 2.342 ± 0.11
x2 = 0.2501 | 3.999 ± 0.18 | 3.087 ± 0.14
x2 = 0.3505 | 5.455 ± 0.23 | 4.049 ± 0.18
x2 = 0.4432 | 7.222 ± 0.29 | 5.184 ± 0.23
x2 = 0.4957 | 8.443 ± 0.33 | 5.954 ± 0.25
x2 = 0.5486 | 9.864 ± 0.37 | 6.838 ± 0.28
x2 = 0.6486 | 13.17 ± 0.47 | 8.857 ± 0.34
x2 = 0.7501 | 17.53 ± 0.61 | 11.47 ± 0.42
x2 = 0.8489 | 23 ± 0.78 | 14.69 ± 0.52
x2 = 0.94 | 29.37 ± 0.98 | 18.4 ± 0.64

CC12CC3CC(C)(C1)CC(C)(C3)C2 + c1ccc2c(c1)CCCC2
viscosity [mPa·s], 100 kPa
Details | x1 = 0.1006 | x1 = 0.2003 | x1 = 0.2993 | x1 = 0.4002 | x1 = 0.4993 | x1 = 0.6013 | x1 = 0.7012 | x1 = 0.8008 | x1 = 0.9005
293.15 K | 2.14 ± 0.09 | 2.1 ± 0.09 | 2.1 ± 0.09 | 2.12 ± 0.09 | 2.16 ± 0.09 | 2.22 ± 0.09 | 2.29 ± 0.09 | 2.38 ± 0.1 | 2.5 ± 0.1
298.15 K | 1.93 ± 0.08 | 1.9 ± 0.08 | 1.9 ± 0.08 | 1.92 ± 0.08 | 1.95 ± 0.08 | 2 ± 0.08 | 2.07 ± 0.08 | 2.15 ± 0.09 | 2.25 ± 0.09
303.15 K | 1.76 ± 0.07 | 1.73 ± 0.07 | 1.73 ± 0.07 | 1.75 ± 0.07 | 1.78 ± 0.07 | 1.82 ± 0.07 | 1.88 ± 0.08 | 1.95 ± 0.08 | 2.04 ± 0.08
308.15 K | 1.61 ± 0.07 | 1.59 ± 0.07 | 1.59 ± 0.07 | 1.6 ± 0.07 | 1.62 ± 0.07 | 1.67 ± 0.07 | 1.72 ± 0.07 | 1.78 ± 0.07 | 1.85 ± 0.08
313.15 K | 1.48 ± 0.06 | 1.46 ± 0.06 | 1.46 ± 0.06 | 1.47 ± 0.06 | 1.49 ± 0.06 | 1.53 ± 0.06 | 1.57 ± 0.06 | 1.63 ± 0.07 | 1.7 ± 0.07
318.15 K | 1.37 ± 0.06 | 1.35 ± 0.06 | 1.35 ± 0.06 | 1.36 ± 0.06 | 1.38 ± 0.06 | 1.41 ± 0.06 | 1.45 ± 0.06 | 1.5 ± 0.06 | 1.56 ± 0.06
323.15 K | 1.26 ± 0.05 | 1.25 ± 0.05 | 1.25 ± 0.05 | 1.26 ± 0.05 | 1.28 ± 0.05 | 1.31 ± 0.05 | 1.34 ± 0.05 | 1.39 ± 0.06 | 1.44 ± 0.06

CCCCCO + c1ccccc1
Details | viscosity [mPa·s]
293.15 K, 101.33 kPa, x1 = 0.0659 | 0.671 ± 0.009
293.15 K, 101.33 kPa, x1 = 0.1351 | 0.715 ± 0.009
293.15 K, 101.33 kPa, x1 = 0.218 | 0.791 ± 0.01
293.15 K, 101.33 kPa, x1 = 0.2928 | 0.876 ± 0.011
293.15 K, 101.33 kPa, x1 = 0.4304 | 1.127 ± 0.014
293.15 K, 101.33 kPa, x1 = 0.5061 | 1.307 ± 0.016
293.15 K, 101.33 kPa, x1 = 0.58 | 1.532 ± 0.018
293.15 K, 101.33 kPa, x1 = 0.6971 | 2.016 ± 0.024
293.15 K, 101.33 kPa, x1 = 0.729 | 2.159 ± 0.025
293.15 K, 101.33 kPa, x1 = 0.8032 | 2.568 ± 0.029
293.15 K, 101.33 kPa, x1 = 0.8704 | 3.014 ± 0.034
293.15 K, 101.33 kPa, x1 = 0.9454 | 3.594 ± 0.04
298.15 K, 101 kPa, x1 = 0.04 | 0.616 ± 0.016
298.15 K, 101 kPa, x1 = 0.09 | 0.641 ± 0.017
298.15 K, 101 kPa, x1 = 0.14 | 0.669 ± 0.018
298.15 K, 101 kPa, x1 = 0.18 | 0.709 ± 0.019
298.15 K, 101 kPa, x1 = 0.37 | 0.936 ± 0.025
298.15 K, 101 kPa, x1 = 0.47 | 1.132 ± 0.03
298.15 K, 101 kPa, x1 = 0.57 | 1.36 ± 0.036
298.15 K, 101 kPa, x1 = 0.78 | 1.963 ± 0.051
